Measured values reported in patent US20230041563A1, “N-(1,3,4-OXADIAZOL-2-YL)ARYLCARBOXAMIDES OR SALTS THEREOF, PREPARATION METHODS, HERBICIDAL COMPOSITIONS AND USES THEREOF” (priority 2018, published 2023).

Assays:
Test in all cases: Weeding effect in post-emergence stage (greenhouse pot spray)
Type in all cases: in vivo
Amaranthus retroflexus = tested on: Amaranthus retroflexus
Source text: (§1) The activity level criteria for plant damage (i.e., growth control rate) are as follows:
(§2) The above growth control rates are fresh weight control rates.
(§3) Experiment on weeding effect in post-emergence stage: monocotyledonous and dicotyledonous weed seeds (Descurainia sophia, Capsella bursa-pastoris, Abutilon theophrasti, Galium aparine, Stellaria media, Lithospermum arvense, rorippa indica, Alopecurus aequalis, Beckmannia syzigachne, Sclerochloa dura, Phleum paniculatum, Bromus japonicus, Aegilops tauschii, Phalaris arundinacea, Amaranthus retroflexus, Chenopodiaceae, Commelina communis, Sonchus arvensis, convolvulus arvensis, Cirsium setosum, Solanum nigrum, Acalypha australis, Digitaria sanguinalis, Echinochloa crusgalli, Setaria viridis, Setaria glauca, Leptochloa chinensis, Monochoria vaginalis, Sagittaria trifolia, Scirpus juncoides, Cyperus rotundus, Cyperus iria, Cyperus difformis, Fimbristylis, Portulaca oleracea, Xanthium sibiricum, Pharbitis nil) and major crop seeds (wheat, corn, rice, soybean, cotton, oilseed rape, millet, sorghum, potato, sesame, ricinus) were placed in plastic pots filled with soil, then covered with 0.5-2 cm of soil, allowed to grow in a good greenhouse environment. After 2 weeks of sowing, the test plants were treated in the 2 to 3 leaf stage. The tested compounds of the present invention were respectively dissolved in acetone, then added with Tween 80 and 1.5 liter/ha of emulsifiable concentrate of methyl oleate as synergist, diluted with a certain amount of water to obtain a solution with a certain concentration, and sprayed with a spray tower onto the plants. After the application, the plants were cultured for 3 weeks in the greenhouse, and then the experimental results of the weeding were counted. The doses of the used compounds were 500, 250, 125, 60, 15 g a.i./ha, and the averages were obtained by repeating for three times.

Echinochloa crusgalli = tested on: Echinochloa crusgalli
Source text: as §1, §2
as §3, with “The doses of the used compounds were 500, 250, 125, 60, 15 g a.i./ha, and the averages were obtained by repeating for three times.” left out

Abutilon theophrasti = tested on: Abutilon theophrasti
Source text: as §1, §2
as §3, with “The doses of the used compounds were 500, 250, 125, 60, 15 g a.i./ha, and the averages were obtained by repeating for three times.” left out

Digitaria sanguinalis = tested on: Digitaria sanguinalis
Source text: as §1, §2
as §3, with “The doses of the used compounds were 500, 250, 125, 60, 15 g a.i./ha, and the averages were obtained by repeating for three times.” left out

Compound | Amaranthus retroflexus (activity level) (Amaranthus retroflexus; Table 2, dose 500 g a.i./ha) | Echinochloa crusgah (activity level) (Echinochloa crusgalli; Table 2, dose 500 g a.i./ha) | Digitaria sanguinalis (activity level) (Digitaria sanguinalis; Table 2, dose 500 g a.i./ha) | Amaranthus retroflexus (activity level) (Amaranthus retroflexus; Table 2, dose 250 g a.i./ha) | Echinochloa crusgah (activity level) (Echinochloa crusgalli; Table 2, dose 250 g a.i./ha) | Abutilion theophrasti (activity level) (Abutilon theophrasti; Table 2, dose 250 g a.i./ha) | Digitaria sanguinalis (activity level) (Digitaria sanguinalis; Table 2, dose 250 g a.i./ha) | further results
Cc1nnc(NC(=O)c2ccc(C(F)(F)F)c([S+]([O-])CCC3CC3)c2F)o1 (stereo not shown) [Compound 1-395] | 5 (Level 5: growth control rate is above 85%) | 5 (Level 5: growth control rate is above 85%) | 5 (Level 5: growth control rate is above 85%) | – | – | – | – | Abutilion theophrasti (activity level) (Abutilon theophrasti; Table 2, dose 500 g a.i./ha): 5 (Level 5: growth control rate is above 85%)
C#CCC[S+]([O-])c1c(C(F)(F)F)ccc(C(=O)Nc2nnc(C)o2)c1F (stereo not shown) [Compound 1-401] | – | – | – | 5 (Level 5: growth control rate is above 85%) | 5 (Level 5: growth control rate is above 85%) | 5 (Level 5: growth control rate is above 85%) | 5 (Level 5: growth control rate is above 85%) | –
CC#CC[S+]([O-])c1c(C(F)(F)F)ccc(C(=O)Nc2nnc(C)o2)c1F (stereo not shown) [Compound 1-402] | – | – | – | 5 (Level 5: growth control rate is above 85%) | 5 (Level 5: growth control rate is above 85%) | 5 (Level 5: growth control rate is above 85%) | 5 (Level 5: growth control rate is above 85%) | –
Cc1nnc(NC(=O)c2ccc(C(F)(F)F)c([S+]([O-])CCCF)c2F)o1 (stereo not shown) [Compound 1-403] | – | – | – | – | – | – | – | Amaranthus retroflexus (activity level) (Amaranthus retroflexus; Table 2, dose 125 g a.i./ha): 5 (Level 5: growth control rate is above 85%); Echinochloa crusgah (activity level) (Echinochloa crusgalli; Table 2, dose 125 g a.i./ha): 5 (Level 5: growth control rate is above 85%); Abutilion theophrasti (activity level) (Abutilon theophrasti; Table 2, dose 125 g a.i./ha): 5 (Level 5: growth control rate is above 85%); Digitaria sanguinalis (activity level) (Digitaria sanguinalis; Table 2, dose 125 g a.i./ha): 5 (Level 5: growth control rate is above 85%)
Cc1nnc(NC(=O)c2ccc(C(F)(F)F)c([S+]([O-])CC(C)F)c2F)o1 (stereo not shown) [Compound 1-404] | – | – | – | – | – | – | – | Amaranthus retroflexus (activity level) (Amaranthus retroflexus; Table 2, dose 125 g a.i./ha): 5 (Level 5: growth control rate is above 85%); Echinochloa crusgah (activity level) (Echinochloa crusgalli; Table 2, dose 125 g a.i./ha): 5 (Level 5: growth control rate is above 85%); Abutilion theophrasti (activity level) (Abutilon theophrasti; Table 2, dose 125 g a.i./ha): 5 (Level 5: growth control rate is above 85%); Digitaria sanguinalis (activity level) (Digitaria sanguinalis; Table 2, dose 125 g a.i./ha): 5 (Level 5: growth control rate is above 85%)
Cc1nnc(NC(=O)c2ccc(C(F)(F)F)c([S+]([O-])CCCC(F)(F)F)c2F)o1 (stereo not shown) [Compound 1-411] | – | – | – | 5 (Level 5: growth control rate is above 85%) | 5 (Level 5: growth control rate is above 85%) | 5 (Level 5: growth control rate is above 85%) | 5 (Level 5: growth control rate is above 85%) | –
Cc1nnc(NC(=O)c2ccc(C(F)(F)F)c([S+]([O-])CCC(F)(F)C(F)(F)F)c2F)o1 (stereo not shown) [Compound 1-412] | – | – | – | 5 (Level 5: growth control rate is above 85%) | 5 (Level 5: growth control rate is above 85%) | 5 (Level 5: growth control rate is above 85%) | 5 (Level 5: growth control rate is above 85%) | –
Cc1nnc(NC(=O)c2ccc(C(F)(F)F)c([S+]([O-])CCC(F)(C(F)(F)F)C(F)(F)F)c2F)o1 (stereo not shown) [Compound 1-413] | 5 (Level 5: growth control rate is above 85%) | 5 (Level 5: growth control rate is above 85%) | 5 (Level 5: growth control rate is above 85%) | – | – | – | – | –
Cc1nnc(NC(=O)c2ccc(C(F)(F)F)c([S+]([O-])CCCCl)c2F)o1 (stereo not shown) [Compound 1-414] | – | – | – | 5 (Level 5: growth control rate is above 85%) | 5 (Level 5: growth control rate is above 85%) | 5 (Level 5: growth control rate is above 85%) | 5 (Level 5: growth control rate is above 85%) | –
Cc1nnc(NC(=O)c2ccc(C(F)(F)F)c([S+]([O-])CCC#N)c2F)o1 (stereo not shown) [Compound 1-427] | 5 (Level 5: growth control rate is above 85%) | 5 (Level 5: growth control rate is above 85%) | 5 (Level 5: growth control rate is above 85%) | – | – | – | – | Abutilion theophrasti (activity level) (Abutilon theophrasti; Table 2, dose 500 g a.i./ha): 5 (Level 5: growth control rate is above 85%)
Cc1nnc(NC(=O)c2ccc(C(F)(F)F)c([S+]([O-])CCCC#N)c2F)o1 (stereo not shown) [Compound 1-428] | 5 (Level 5: growth control rate is above 85%) | 5 (Level 5: growth control rate is above 85%) | 5 (Level 5: growth control rate is above 85%) | – | – | – | – | Abutilion theophrasti (activity level) (Abutilon theophrasti; Table 2, dose 500 g a.i./ha): 5 (Level 5: growth control rate is above 85%)
